Where two headings read alike, the source gives them in different places.
How the values were obtained:
[1] = target: double-stranded 17-mer DNA fragment; test: ThO (Thiazole Orange) DNA displacement assay; assay type: binding; conditions: read-out: ThO-DNA binding IC50;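 also: miniaturized displacement of the intercalating dye from unlabeled duplex DNA, used to flag nonspecific DNA binders, chiefly intercalators, groove binders may be missed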
APE1 [2] = target: T1, APE1 (Homo sapiens, UniProt P27695); test: Fluorescence polarization (FP) displacement assay of APE1 binding to AP-DNA probe;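 also: TAMRA 5′-labeled duplex DNA with THF abasic site (5 nM) and APE1 (20 nM), Mg2+-free buffer, 15 min at room temperature, inhibition seen as lowered polarization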
T1 construct: made in house
Description: Double-stranded oligodeoxynucleotide containing tetrahydrofuran (THF) abasic site labeled with TAMRA at the 5′-end was used as the labeled binding probe. Inhibition of APE1 binding to labeled probe was detected by a decrease in the fluorescence polarization (FP) of the fluorophore. Briefly, 4 µL mixture of 20 nM APE1 and 5 nM probe contained in the enzymatic assay buffer from which Mg^2+ was omitted, was dispensed into 1536-well Greiner black solid bottom plates. Compounds (23 nL) were transferred via pintool, and after a 15-minute incubation at room temperature, fluorescence polarization was measured in a ViewLux High-throughput CCD imager (480 nm excitation and 540 nm emission) to determine the degree of probe displacement caused by the test compounds.

HeLa cells [3] = test: AP site measurement in genomic DNA; assay type: cell-based, human; conditions: 275 µM MMS plus inhibitor; for AP site levels, combination treatment versus MMS-alone: 24 h, initial test (Figure 8)
Description: HeLa cells at 80% confluency (6×10^5 cells) were subjected to the following treatments in a 6-well plate for 24 hours at 37°C: 1) DMSO alone, 2) 275 µM MMS, 3) APE1 inhibitors dissolved in DMSO (5–20 µM final compound concentration), and 4) the inhibitors as in treatment 3 in combination with 275 µM MMS. Cells were then harvested and processed using a Qiagen Genomic DNA isolation kit (Germantown, MD). After DNA quantitation, AP sites were measured using the DNA Damage Quantification kit from Dojindo Molecular Technologies (Rockville, MD).
As stated above, the application of the genotoxic agent MMS results in an increase in the level of AP sites within the genome. An effective APE1-targeted inhibitor applied under the conditions of increased genotoxic stress is expected to interfere with the repair of AP sites, while ideally having no effect on the AP site levels when applied as a single agent. Thus, the net effect of treating cells with a combination of MMS and inhibitor would be an increase in the number of AP site lesions. To determine the effect on AP site accumulation caused by treatment with MMS in combination with an APE1 inhibitor, as compared to treatment with MMS or inhibitor alone, we measured AP site levels in the chromosomal DNA from HeLa cells using an aldehyde-reactive probe-based colorimetric assay. The concentrations of MMS and inhibitor (275 µM for MMS and between […] for the inhibitor, respectively) were selected to fall below the onset of cytotoxicity for each agent based on the analysis of the MMS potentiation data shown in Figure 5.

HeLa cells [4] = test: MMS potentiation assay (CellTiter Glo viability); assay type: cell-based, human; design: key: N.A., no activity observed; P, positive; I, inconclusive; N.T., not tested; conditions: for MMS Assay: potentiation of the genotoxic effect of methylmethane sulfonate
Description: HeLa cells were plated at 6000 cells/well in DMEM culture medium containing 10% FBS into white solid bottom 384-well cell culture plates. The plates were incubated at 37°C overnight for cell attachment, followed by media replacement. The fresh medium contained serial dilutions of compounds of interest in the presence (0.4 mM final) or absence of MMS. The plates were incubated for 24 h at 37°C. Cell viability was determined by luminescence detection after an addition of 15 µL of CellTiter Glo reagent (Promega, Madison, WI). Percent viability was calculated for each concentration of compound tested in duplicate by relating the corresponding luminescence to that of a negative DMSO vehicle control. MMS potentiation trends were defined as follows: negative (-), if cell viability in the compound-plus-MMS treatment was the same as that of the DMSO-plus-MMS control (overlapping dose-response curves); inconclusive (I), if the shift in the cell viability dose-response upon MMS inclusion relative to compound-alone was less than 30%; and positive (P), if the difference between the compound-plus-MMS and compound-alone curves was at least 30%, and maintained within at least a two-fold compound concentration span.
To examine the biological prospects of the top compounds, we tested their ability to inhibit APE1 DNA repair activity by assessing enhancement of MMS toxicity in mammalian cells. MMS creates methylated-base damage to genomic DNA, which, when excised by an alkylpurine DNA glycosylase, results in a high number of cytotoxic AP sites. We compared the viability of HeLa cells exposed to a dilution series of inhibitor alone to a combination of a fixed MMS concentration with the same dilution series of inhibitor by using a standard CellTiter Glo luminescence assay. This technique measures the number of viable cells in culture based on quantitation of the ATP present, which signals the presence of metabolically active cells. The assay was further optimized for 384-well plates, allowing a high-throughput testing of multiple hits at multiple concentrations, a scope of investigation previously impossible due to the very low throughput of the traditionally applied colony formation assay.
From the 223 compounds found positive in the gel-based APE1 assays, exclusion of the most promiscuous hits, that is, those that were both DNA binders and EndoIV-inhibitory, yielded a set of 170 compounds (Figure 3). This shortened group of hits was tested in the cell-based potentiation assay for their ability to dose-dependently enhance sensitivity of HeLa cells to the alkylating agent MMS.

APE1 [5] = target: T1, APE1; test: Fluorogenic kinetic qHTS APE1 incision assay (primary screen and retest of cherrypicked samples); assay type: biochemical;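 also: purified APE1 cleaving a fluorophore/dark-quencher labelled 17-mer duplex DNA bearing a tetrahydrofuran AP site, fluorescence rise followed kinetically over the first 2 min, inhibition normalized to controls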
Description: All screening operations were performed on a fully integrated robotic system (Kalypsys, San Diego, CA) [28] with library plates screened proceeding from the lowest to the highest concentration to minimize compound carryover [26]. Vehicle-only plates, with DMSO being pin-transferred to the entire column 5–48 compound area, were included regularly throughout the screen in order to record any systematic shifts in assay signal. During the screen, reagent bottles were kept at 4°C and all liquid lines were covered with aluminum foil to minimize degradation.
Screening data were corrected and normalized, and concentration–effect relationships was derived using in-house developed algorithms [25].
To screen for inhibitors of APE1 incision activity, we employed a purified-enzyme biochemical assay with a model substrate featuring a red-shifted fluorescent reporter in combination with a dark non-emitting quencher. These moieties were incorporated as end labels onto a 17-mer double-stranded DNA fragment containing a centrally-located tetrahydrofuran AP site sugar mimetic, which serves as the APE1 cleavage site. Upon APE1-catalyzed strand scission immediately 5′ to the AP site analog, the shortened oligodeoxynucleotide carrying the fluorescent reporter spontaneously dissociates from the rest of the substrate, leading to an increase in fluorescence due to its spatial separation from the dark quencher (Figure 1A).
Using a high-speed whole-plate fluorescence imager, the assay data for the entire screen was conducted in kinetic mode, with the APE1 incision reaction being monitored over the initial linear time frame of 2 min (Figure 1B). Thus, any inhibition associated with each sample was computed from the alteration in fluorescence intensity over the time-course measurement period, after normalization against the appropriate controls (Figure 1B, inset).

APE1 [6] = target: T1, APE1; test: Gel-based radiotracer (32P) APE1 incision assay; assay type: biochemical; design: concentration or dose not given beside the values; conditions: percent incision shown; entries 1-112;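 also: APE1 incision reactions ran 5 min at 37 °C, with cleaved product and intact substrate resolved electrophoretically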
E. coli Endo IV = target: T2, E. coli Endo IV (Escherichia coli, UniProt P0A6C1); test: E. coli Endo IV profiling counterscreen; assay type: biochemical;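 also: selectivity counterscreen of candidate APE1 inhibitors against the bacterial endonuclease Endo IV, run in the same assay format as the primary APE1 high-throughput screen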
T2 construct: made in house
Description: In order to screen out nonselective compounds, such as non-specific DNA binders and inhibitors of related enzymes, we used a miniaturized ThO DNA displacement assay and a counterscreen against the bacterial endonuclease E. coli Endo IV, respectively, following the previously published protocols [21].
To probe the selectivity of the candidate APE1 inhibitors, we tested them against E. coli EndoIV [36], employing the same assay as used in the HTS.

APE1 [7] = target: T1, APE1; test: Gel-based APE1 incision assay with fluorescence (TAMRA) detection; assay type: biochemical
Description: To test the compounds’ inhibitory activity after the primary screen, two assays designed to monitor the cleavage of substrate to product through electrophoretic separation were utilized. The radiotracer incision assay, utilizing a ^32P-labeled substrate, was performed essentially as described [21], [31], [32]. Incision reactions utilizing ^32P-labeled substrate were carried out for 5 min at 37°C. After the addition of an equal volume of stop buffer (0.05% bromophenol blue and xylene cyanol, 20 mM EDTA, 95% formamide), the substrate and product were separated on a standard polyacrylamide denaturing gel and quantified by PhosphorImager analysis [32]. […] APE1 cleavage of the substrate results in a 18-mer TAMRA-labeled fragment which was separated by a non-denaturing polyacrylamide gel electrophoresis and quantitated in a Gel Doc XR imaging system, BioRad (Hercules, CA). The advantage of this assay is that it can be used in a relatively high throughput mode with the inhibitors tested at a range of concentrations (0.17 µM to 125 µM was used here). APE1 (0.15 nM) was added to a reaction mixture of 20 µL containing assay buffer (40 mM HEPES pH 7.5, 50 mM NaCl, 1 mM MgCl2 and 2 mM DTT), and labeled ds DNA substrate (final 75 nM). The mixture was incubated at RT for 15 min, and the reaction was stopped by the addition 20 µL of 2X dye stop solution (10% glycerol, 20 mM EDTA and bromophenol blue). Then 10 µL of the mixture was resolved on 20% polyacrylamide gel in 1X Tris-borate EDTA running buffer at 250 V for 40 min.
To eliminate false positive hits, all 595 confirmed molecules were tested for their ability to inhibit APE1 incision activity using biochemical assays that involve electrophoretic separation of the substrate and cleavage product.

[8] = initial quantitative high-throughput screen, read-out: APE1 qHTS IC50
[9] = retest of cherrypicked sample, read-out: APE1 Retest IC50
[10] = estimated IC50, fluorophore detection, entries 113-223, read-out: F-PAGE Assay IC50
[11] = entries 113-223: fluorophore detection, estimated IC50, read-out: Gel-based electrophoretic separation assay with fluorophore detection, estimated IC50 (column headed Radiotracer Assay (%Activity))

T1 sequence (P27695 whole entry): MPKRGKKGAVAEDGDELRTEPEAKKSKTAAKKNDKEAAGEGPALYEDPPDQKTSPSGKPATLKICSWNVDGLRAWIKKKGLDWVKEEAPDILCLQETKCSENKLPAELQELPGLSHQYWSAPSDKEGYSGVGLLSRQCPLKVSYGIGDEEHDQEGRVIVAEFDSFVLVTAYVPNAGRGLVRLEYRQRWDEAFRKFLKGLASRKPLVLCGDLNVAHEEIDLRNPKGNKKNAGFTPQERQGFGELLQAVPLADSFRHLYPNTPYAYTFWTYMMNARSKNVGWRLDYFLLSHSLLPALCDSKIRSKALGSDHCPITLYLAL

SMILES | IC50 [1] | IC50 (APE1 [2]) | AP site levels, combination versus MMS-alone, repeat testing (HeLa cells [3]; repeat test (Figure S1)) | AP site levels, combination treatment versus MMS-alone (HeLa cells [3]) | MMS Assay (HeLa cells [4]) | IC50 (APE1 [5]; APE1 Retest IC50, retest of cherrypicked sample) | IC50 (APE1 [5]; APE1 qHTS IC50, initial quantitative high-throughput screen) | Radiotracer Assay (%Activity) (APE1 [6]) | IC50 (E. coli Endo IV) | IC50 (APE1 [2]; read-out: FP IC50) | IC50 (APE1 [5]; [8]) | IC50 (APE1 [5]; [9]) | IC50 (APE1 [7]; [10]) | IC50 (E. coli Endo IV; read-out: EndoIV IC50) | MMS Assay: potentiation of the genotoxic effect of methylmethane sulfonate (HeLa cells [4]) | IC50 (APE1 [7]; [11])
O=C1NC(=O)N(Cc2ccco2)C(=O)C1=CC=Cc1ccco1 [MLS000587064] | > 57 µM | > 57 µM | support the initially-observed enhancements | obscured by large standard deviations | P | 5 µM | 2.8 µM | 14% | > 57 µM |  |  |  |  |  |  | 
CC(=O)Oc1cc(C(=O)OCC(=O)N2CCc3ccccc3C2)cc(OC(C)=O)c1OC(C)=O [MLS002252117] | > 57 µM |  |  |  | I |  |  |  |  | > 57 µM | 5.3 µM | 11.5 µM | 4.5 µM | > 57 µM |  | 
O=C1COc2ccc(C(=O)COC(=O)/C=C/c3ccc(Br)o3)cc2N1 [MLS001142042] | > 57 µM |  |  |  | I |  |  |  |  | > 57 µM | 4.7 µM | 14.5 µM | 2.2 µM | > 57 µM |  | 
COc1ccc2c(c1)c(=O)oc1cc(OCC(=O)N3CCc4ccccc4C3)ccc12 [MLS000594187] | > 57 µM |  |  | no statistical significance | P |  |  | 51% |  | > 57 µM | 10 µM | 3.91 µM |  | > 57 µM |  | 
COc1ccc(C(=O)Nc2ccnn2C2CCN(Cc3ccc4nonc4c3)CC2)cc1 [MLS001090278] | > 57 µM |  |  |  |  |  |  |  |  | > 57 µM | 5.3 µM | 10.2 µM |  | > 57 µM | I | 10 µM
COc1cc2c(ccc3cc(OC)c(OC)c(O)c32)cc1O [MLS000863573] | 11.2 µM |  |  | no statistical significance | P |  |  | 4% | 8.9 µM | 12.6 µM | 0.7 µM | 0.6 µM |  |  |  | 
Cn1cccc1/C=C1\C(=O)NC(=O)N(Cc2ccco2)C1=O [MLS000677191] | > 57 µM |  |  |  | I |  |  | 5% |  | > 57 µM | 14.1 µM | 4.5 µM |  | > 57 µM |  | 
O=C1/C(=C/C=C/c2ccco2)SC(=S)N1NS(=O)(=O)c1ccccc1 [MLS000778639] | > 57 µM |  |  |  | I |  |  | 6% |  | > 57 µM | 2.5 µM | 3.5 µM |  | > 57 µM |  | 
O=C(O)c1cccc(-n2cccc2/C=C/[N+](=O)[O-])c1 [MLS000778420] | > 57 µM |  |  |  | P |  |  | 46% |  | > 57 µM | 3.9 µM | 4.5 µM |  | > 57 µM |  | 
N#C/C(=C\c1ccc(O)c(O)c1)C(=O)Nc1cccc2ncccc12 [MLS001173932] | 2 µM |  |  |  | I |  |  |  |  | > 57 µM | 3 µM | 5.1 µM | 0.6 µM | > 57 µM |  | 
COc1ccc2c(c1)c(=O)oc1cc(OCC(=O)N3CCC(C)CC3)ccc12 [MLS000088142] | > 57 µM |  |  |  | I |  |  | 29% |  | 14.1 µM | 15.6 µM | 5 µM |  | > 57 µM |  | 
COc1c(-c2ccc(O)cc2)oc2cc(O)cc(O)c2c1=O [MLS000877008] | > 57 µM |  |  |  | I |  |  | 43% |  | > 57 µM | 1.1 µM | 2.8 µM |  | > 57 µM |  | 
O=C(O)C1Nc2ccc(Br)cc2C2C=CCC12 (stereo not shown) [MLS001209038] | 25.7 µM |  |  |  | I |  |  |  |  | > 57 µM | 13.4 µM | 18.2 µM | 6.3 µM | > 57 µM |  | 
CCc1cc(CNC(=O)c2ccc(OC3CCN(CCc4ccccc4)CC3)cc2)on1 [MLS001105846] | > 57 µM |  |  |  | P |  |  |  |  | 32.4 µM | 11.9 µM | 6.5 µM | 4.5 µM | > 57 µM |  | 
COc1ccc(CN2C(=O)NC(=O)/C(=C\c3ccco3)C2=O)cc1 [MLS000723827] | > 57 µM |  |  |  | I |  |  | 18% |  | > 57 µM | 22.4 µM | 14.1 µM |  | > 57 µM |  | 
CC1CCc2c(sc(NC(=O)/C=C/c3cccs3)c2C(=O)O)C1 (stereo not shown) [MLS000974674] | 36.3 µM |  |  |  | P |  |  |  |  | > 57 µM | 11.9 µM | 45.7 µM | 6.3 µM | > 57 µM |  | 
COc1ccc(CCn2c(O)cc3nn(-c4nc5ccccc5s4)c(=O)c-3c2C)cc1 [MLS000763226] | 10 µM |  |  |  | I |  |  | 20% |  | > 57 µM | 31.6 µM | 15.8 µM |  | > 57 µM |  | 
O=C(O)c1ccccc1-c1ccc(/C=c2\sc3nc4cc(Br)cnc4n3c2=O)o1 [MLS000107874] | > 57 µM |  |  |  | I |  |  | 11% |  | 17.8 µM | 22.4 µM | 8.9 µM |  | > 57 µM |  | 
O=C(O[C@@H]1OC2COC(=O)c3cc(O)c(O)c(O)c3-c3c(cc(O)c(O)c3O)C(=O)O[C@@H]([C@H]1O)[C@@H]2O)c1cc(O)c(O)c(O)c1 [MLS000563483] | > 57 µM |  |  |  | I |  |  | 16% |  | > 57 µM | 0.07 µM | 0.05 µM |  | > 57 µM |  | 
Cc1cccn2c(=O)c3cc(C(=O)NCc4ccco4)c(=N)n(C4CCCCC4)c3nc12 [MLS001217741] | > 57 µM |  |  |  |  |  |  |  |  | > 57 µM | 16.8 µM | 12.9 µM |  | > 57 µM | P | 22.4 µM
O=C1CC(=O)N(Cc2ccco2)C(=S)N1 [MLS000535286] | > 57 µM |  |  |  | I |  |  | 28% |  | > 57 µM | 11.2 µM | 12.6 µM |  | > 57 µM |  | 
